In ChEMBL document CHEMBL1201862, “PubChem BioAssay data set” (2004):
Counter-ions that a name gives are not always drawn. Activity calls are given as the source filed them.

Tests used:
[1] = microbe, parasite or virus in culture; assay type: functional; details: Mycobacterium tuberculosis
[2] = NIH-3T3 fibroblast cytotoxicity, dose response, cytotoxicity control, cell-based, fluorescence, Alamar Blue, secondary assay (AID 2327); assay type: functional;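 also: NIH-3T3 mouse fibroblasts cultured with fluconazole at 8 µg/mL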
[3] = C. albicans growth with fluconazole, confirmation, fluorescence, retest (AID 2467); assay type: functional, cell-based
[4] = growth suppression of PTEN-null colon cells, dose response, cell-based, HCT116 PTEN knockout (AID 1047); assay type: functional;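 also: HCT116 colon tumor cells with PTEN knocked out; cells exposed to compound for 60 hours before readout; potency for loss of cell viability measured by luminescence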
[5] = molecular target: T1, Cytochrome P450 3A4 (Homo sapiens, UniProt P08684); details: Potency
T1 sequence (P08684 whole entry): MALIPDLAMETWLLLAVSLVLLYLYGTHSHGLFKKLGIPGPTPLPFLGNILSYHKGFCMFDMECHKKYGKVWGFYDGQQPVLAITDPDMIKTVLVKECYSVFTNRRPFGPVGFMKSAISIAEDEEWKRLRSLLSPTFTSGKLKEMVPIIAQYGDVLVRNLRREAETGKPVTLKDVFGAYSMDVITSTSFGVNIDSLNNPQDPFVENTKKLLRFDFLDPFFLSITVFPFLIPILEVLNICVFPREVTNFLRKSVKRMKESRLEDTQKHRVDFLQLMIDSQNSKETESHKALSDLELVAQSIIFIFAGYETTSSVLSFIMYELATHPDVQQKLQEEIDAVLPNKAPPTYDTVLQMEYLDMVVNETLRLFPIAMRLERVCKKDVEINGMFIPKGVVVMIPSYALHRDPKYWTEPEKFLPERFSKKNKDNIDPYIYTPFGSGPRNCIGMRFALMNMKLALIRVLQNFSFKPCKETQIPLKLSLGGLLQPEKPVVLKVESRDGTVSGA

[6] = Luminescence Cell-Based Dose Confirmation HTS to Identify Activators of 5'UTR Stem-Loop Driven Alpha-Synuclein mRNA Translation in H4 Neuroglioblastoma Cells. [Related pubchem assays: 1829 (Project Summary), 1814 (Primary HTS)]; assay type: functional
[7] = Luminescence Cell-Based Dose Response HTS to Identify Activators of Luciferase Translation or Activity in H4 […] Cells. [Related pubchem assays: 1829 (Project Summary), 1814 (Primary HTS)]; assay type: functional
[8] = system: H4; experiment: Luminescence Cell-Based Dose Response HTS to Identify Activators of 5'UTR Stem-Loop Driven Prion Protein mRNA Translation in H4 Neuroglioblastoma Cells. [Related pubchem assays: 1829 (Project Summary), 1814 (Primary HTS)]; assay type: functional; details: Homo sapiens
[9] = molecular target: FAD-linked sulfhydryl oxidase ALR (Homo sapiens, UniProt P55789); experiment: inhibitors of human ALR sulfhydryl oxidase, dose response, biochemical, H2O2 detection, luminescence, cherry-pick (AID 493248)
FAD-linked sulfhydryl oxidase ALR, sequence (P55789 whole entry): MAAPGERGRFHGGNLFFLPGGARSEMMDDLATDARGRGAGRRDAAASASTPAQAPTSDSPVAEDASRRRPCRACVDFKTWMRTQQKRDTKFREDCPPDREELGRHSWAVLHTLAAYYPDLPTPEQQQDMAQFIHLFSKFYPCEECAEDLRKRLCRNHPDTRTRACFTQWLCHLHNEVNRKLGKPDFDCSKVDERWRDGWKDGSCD

[10] = molecular target: Genome polyprotein (dengue virus type 2, UniProt P29990); experiment: Dengue-2 NS5 methyltransferase inhibitors, primary screen, biochemical, confirmation dose response (AID 588689); assay type: functional
Genome polyprotein, sequence (P29990 2492-3391 limits assumed): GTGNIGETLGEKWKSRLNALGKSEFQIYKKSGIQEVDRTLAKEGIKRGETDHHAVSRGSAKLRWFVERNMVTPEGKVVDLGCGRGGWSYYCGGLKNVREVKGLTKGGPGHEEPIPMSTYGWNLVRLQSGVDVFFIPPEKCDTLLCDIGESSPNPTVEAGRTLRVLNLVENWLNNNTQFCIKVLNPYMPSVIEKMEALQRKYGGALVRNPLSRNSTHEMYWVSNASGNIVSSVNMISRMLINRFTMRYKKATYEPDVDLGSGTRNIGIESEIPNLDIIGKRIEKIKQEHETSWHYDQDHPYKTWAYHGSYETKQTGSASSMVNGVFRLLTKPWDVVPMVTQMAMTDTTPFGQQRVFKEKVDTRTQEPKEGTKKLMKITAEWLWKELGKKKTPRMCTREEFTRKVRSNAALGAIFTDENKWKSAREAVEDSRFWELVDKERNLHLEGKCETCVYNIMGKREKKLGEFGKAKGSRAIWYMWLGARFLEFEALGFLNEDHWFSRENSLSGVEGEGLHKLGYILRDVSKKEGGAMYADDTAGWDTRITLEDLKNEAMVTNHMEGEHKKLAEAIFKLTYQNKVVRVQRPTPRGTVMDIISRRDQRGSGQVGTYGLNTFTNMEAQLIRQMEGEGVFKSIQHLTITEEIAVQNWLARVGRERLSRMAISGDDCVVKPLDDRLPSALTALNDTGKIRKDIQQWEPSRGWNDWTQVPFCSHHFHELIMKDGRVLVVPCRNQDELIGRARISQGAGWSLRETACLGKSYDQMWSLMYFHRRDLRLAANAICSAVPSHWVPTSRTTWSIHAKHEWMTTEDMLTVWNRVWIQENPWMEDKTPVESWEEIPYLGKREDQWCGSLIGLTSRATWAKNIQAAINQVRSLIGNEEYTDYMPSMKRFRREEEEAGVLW

[11] = molecular target: Glyceraldehyde-3-phosphate dehydrogenase (Homo sapiens, UniProt P04406)
Glyceraldehyde-3-phosphate dehydrogenase, sequence (P04406 whole entry): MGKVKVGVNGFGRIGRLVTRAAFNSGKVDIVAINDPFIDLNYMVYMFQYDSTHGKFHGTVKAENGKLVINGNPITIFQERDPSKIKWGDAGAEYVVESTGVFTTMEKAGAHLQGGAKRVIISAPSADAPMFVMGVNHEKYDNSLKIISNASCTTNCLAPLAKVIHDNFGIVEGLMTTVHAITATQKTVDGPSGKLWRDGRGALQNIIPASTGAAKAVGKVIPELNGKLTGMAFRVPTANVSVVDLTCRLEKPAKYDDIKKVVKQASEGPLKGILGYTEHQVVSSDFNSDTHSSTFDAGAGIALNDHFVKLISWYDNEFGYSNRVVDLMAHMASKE

[12] = molecular target: Cytochrome P450 2C19 (Homo sapiens, UniProt P33261); experiment: Cytochrome panel assay with activity outcomes. Panel member name: p450-cyp2c19 Compounds with AC50 equal or less than 10 uM are considered active; assay type: functional
Cytochrome P450 2C19, sequence (P33261 whole entry): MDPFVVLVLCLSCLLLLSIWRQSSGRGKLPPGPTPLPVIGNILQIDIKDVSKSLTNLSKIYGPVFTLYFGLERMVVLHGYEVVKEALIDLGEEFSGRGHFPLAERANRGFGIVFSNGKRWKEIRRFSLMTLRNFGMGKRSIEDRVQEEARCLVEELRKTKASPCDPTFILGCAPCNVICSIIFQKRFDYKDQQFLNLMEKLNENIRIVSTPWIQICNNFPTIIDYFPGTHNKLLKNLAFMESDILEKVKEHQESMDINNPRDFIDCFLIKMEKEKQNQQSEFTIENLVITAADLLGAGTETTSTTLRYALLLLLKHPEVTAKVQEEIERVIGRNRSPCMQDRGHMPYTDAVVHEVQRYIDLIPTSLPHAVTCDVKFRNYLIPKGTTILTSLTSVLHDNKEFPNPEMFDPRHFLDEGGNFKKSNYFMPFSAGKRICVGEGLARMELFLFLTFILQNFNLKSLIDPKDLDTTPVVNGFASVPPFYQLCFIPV

[13] = molecular target: Cytochrome P450 2C9 (Homo sapiens, UniProt P11712)
Cytochrome P450 2C9, sequence (P11712 whole entry): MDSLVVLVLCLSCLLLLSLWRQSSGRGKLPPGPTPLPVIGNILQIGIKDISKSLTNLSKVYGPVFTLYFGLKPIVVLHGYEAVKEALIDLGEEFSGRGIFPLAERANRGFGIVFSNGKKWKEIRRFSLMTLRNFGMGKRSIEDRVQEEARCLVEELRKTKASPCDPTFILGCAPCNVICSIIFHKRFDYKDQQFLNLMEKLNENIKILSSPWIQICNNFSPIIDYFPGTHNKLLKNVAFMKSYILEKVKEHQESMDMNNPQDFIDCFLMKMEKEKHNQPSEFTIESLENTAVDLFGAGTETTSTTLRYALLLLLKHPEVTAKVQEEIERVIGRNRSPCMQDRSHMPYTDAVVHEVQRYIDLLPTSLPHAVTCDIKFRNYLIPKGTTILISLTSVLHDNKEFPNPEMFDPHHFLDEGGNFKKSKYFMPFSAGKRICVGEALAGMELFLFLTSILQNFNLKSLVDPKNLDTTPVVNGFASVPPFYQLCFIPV

[14] = inhibitors of intracellular T. cruzi replication, confirmation, NIH3T3 host cells, beta-gal luminescence (AID 2044); assay type: functional, cell-based;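 also: intracellular parasites grown in NIH/3T3 mouse fibroblasts as host cells; luminescent beta-galactosidase reporter signal from transgenic T. cruzi replicating inside host cells; inhibitors lower the luminescence signal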
[15] = cytotoxicity toward NIH3T3 fibroblasts, dose response, counter-screen, cell-based, ATP luminescence, mouse fibroblasts (AID 2010); assay type: functional;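 also: cells exposed to compound for about 90 hours before reading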
[16] = growth suppression of beta-catenin-knockout colon cells, dose response, cell-based, HCT116, human colon tumor (AID 1045); assay type: functional;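 also: HCT116 colon tumor cells with beta catenin knocked out; cells exposed to compound for 60 hours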
[17] = cells; assay type: functional, cell-based
[18] = cells; assay type: functional, cell-based; remark: listed apart in the source
[19] = system: Vero; experiment: cells; assay type: functional; details: Chlorocebus sabaeus
[20] = molecular target: Cytochrome P450 2D6 (Homo sapiens, UniProt P10635);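 also: CYP2D6 member of a cytochrome P450 panel assay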
Cytochrome P450 2D6, sequence (P10635 whole entry): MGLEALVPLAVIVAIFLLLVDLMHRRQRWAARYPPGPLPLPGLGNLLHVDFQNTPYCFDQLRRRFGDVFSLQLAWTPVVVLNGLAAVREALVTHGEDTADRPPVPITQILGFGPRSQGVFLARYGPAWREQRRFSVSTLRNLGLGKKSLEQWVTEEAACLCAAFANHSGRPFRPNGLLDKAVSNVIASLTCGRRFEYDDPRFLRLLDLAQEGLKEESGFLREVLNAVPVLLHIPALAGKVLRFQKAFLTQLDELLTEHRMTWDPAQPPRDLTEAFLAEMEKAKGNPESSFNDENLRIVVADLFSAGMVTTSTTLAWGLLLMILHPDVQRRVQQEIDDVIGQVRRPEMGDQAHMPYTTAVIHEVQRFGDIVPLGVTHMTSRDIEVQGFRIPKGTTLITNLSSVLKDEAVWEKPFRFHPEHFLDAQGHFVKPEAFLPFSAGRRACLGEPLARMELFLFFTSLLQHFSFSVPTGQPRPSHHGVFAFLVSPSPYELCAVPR

[21] = molecular target: T1, Cytochrome P450 3A4
[22] = system: BJ; experiment: cytotoxicity toward BJ-TERT fibroblasts, dose response, cell-based, RAS-independent, luminescence (AID 1933); assay type: functional; details: Homo sapiens
[23] = system: BJ; experiment: cells; assay type: functional, cell-based; details: Homo sapiens
[24] = molecular target: Luciferin 4-monooxygenase (Photinus pyralis, UniProt P08659); experiment: firefly luciferase enzyme inhibitors, dose response, biochemical, luminescence (AID 1891)
Luciferin 4-monooxygenase, sequence (P08659 whole entry): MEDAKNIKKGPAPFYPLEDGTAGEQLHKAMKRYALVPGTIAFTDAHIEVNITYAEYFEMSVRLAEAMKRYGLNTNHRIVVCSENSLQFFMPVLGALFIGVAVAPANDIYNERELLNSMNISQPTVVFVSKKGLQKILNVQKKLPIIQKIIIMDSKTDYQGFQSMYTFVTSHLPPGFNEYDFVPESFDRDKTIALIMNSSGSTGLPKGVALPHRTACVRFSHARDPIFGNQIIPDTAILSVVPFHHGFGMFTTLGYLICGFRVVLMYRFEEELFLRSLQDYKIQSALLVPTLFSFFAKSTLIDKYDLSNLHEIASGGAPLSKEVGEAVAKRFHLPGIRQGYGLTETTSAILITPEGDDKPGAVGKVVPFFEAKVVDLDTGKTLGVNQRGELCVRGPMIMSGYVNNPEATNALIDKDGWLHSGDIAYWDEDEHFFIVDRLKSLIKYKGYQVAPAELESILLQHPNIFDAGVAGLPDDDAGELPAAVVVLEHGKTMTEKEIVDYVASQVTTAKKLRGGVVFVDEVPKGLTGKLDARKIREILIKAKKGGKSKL

[25] = Luminescence Cell-Based Dose Confirmation HTS to Identify Inhibitors of Platelet Dense Granule Release. [Related pubchem assays: 1663 (Primary HTS), 1678 (Summary of Project)]; assay type: functional
[26] = system: BJ; experiment: cytotoxicity toward BJ-TERT-LT-ST fibroblasts, dose response, cell-based, RAS-independent, luminescence (AID 1935); assay type: functional; details: Homo sapiens;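 also: BJ fibroblasts immortalized with TERT plus LT and ST oncogenes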
[27] = cytotoxicity toward DRD oncogenic fibroblasts, dose response, cell-based, non-viral oncogenic, luminescence (AID 1934); assay type: functional; details: Homo sapiens
[28] = molecular target: T2, Ubiquitin-conjugating enzyme E2 N (Homo sapiens, UniProt P61088); assay type: functional;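 also: Dose-response confirmation in a TR-FRET assay detecting UBC13-driven polyubiquitin chain formation, inhibition measured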
T2 sequence (P61088 whole entry): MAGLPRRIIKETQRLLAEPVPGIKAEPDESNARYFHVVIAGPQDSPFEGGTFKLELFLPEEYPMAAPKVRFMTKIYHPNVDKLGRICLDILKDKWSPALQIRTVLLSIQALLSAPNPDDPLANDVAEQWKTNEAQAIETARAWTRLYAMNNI

[29] = molecular target: T3, DNA repair protein RAD52 homolog (Homo sapiens, UniProt P43351); assay type: functional, biochemical
T3 sequence (P43351 whole entry): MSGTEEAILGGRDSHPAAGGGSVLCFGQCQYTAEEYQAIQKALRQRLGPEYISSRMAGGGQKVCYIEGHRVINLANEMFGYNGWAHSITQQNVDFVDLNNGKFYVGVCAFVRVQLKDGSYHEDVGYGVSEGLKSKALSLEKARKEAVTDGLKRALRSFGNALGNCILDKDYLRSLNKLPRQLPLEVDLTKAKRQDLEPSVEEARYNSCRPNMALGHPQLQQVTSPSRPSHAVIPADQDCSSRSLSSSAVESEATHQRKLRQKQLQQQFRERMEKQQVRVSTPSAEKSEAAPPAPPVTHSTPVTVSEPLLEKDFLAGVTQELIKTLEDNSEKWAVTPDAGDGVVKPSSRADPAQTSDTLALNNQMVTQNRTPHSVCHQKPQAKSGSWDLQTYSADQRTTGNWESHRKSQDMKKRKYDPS

[30] = cells; assay type: functional

SMILES: Cc1cccc2c1-c1sc(C(=O)Nc3ccccc3N3CCN(C)CC3)cc1CO2
- CC50 [1]: 18.8 µM (active)

SMILES: O=C(NCCCc1ccccc1)Nc1cccc(Cl)c1
- EC50 [2]: > 150 µM (inactive)
- EC50 [3]: > 38 µM (not active)
- EC50 [4]: 43.5 µM (active)

SMILES: COC(c1ccccc1Br)C(C)/C=C/CCO (centres undefined)
- AC50 [5]: 3.16 µM (inconclusive)

SMILES: Cc1occc1C(=O)N/N=C/c1cccc2ccccc12
- EC50 [6]: 0.129 µM (active)
- EC50 [7]: 0.19 µM (active)
- EC50 [8]: 52.9 µM (active)

SMILES: Nc1ccc(Oc2ccc(N)cc2)cc1
- AC50 [5]: 31.6 µM (inconclusive)

SMILES: COc1cc(C)c(C(=O)Oc2cc(C)c(C(=O)O)c(O)c2C)c(OC)c1C [DIFFRACTAIC ACID]
- AC50 [9]: 0.784 µM (active)
- AC50 [5]: 25.1 µM (inconclusive)

SMILES: CN1CCCCC1c1ccc(-c2cccnc2)nc1 (centres undefined) [ANABASAMINE HYDROCHLORIDE]
- AC50 [5]: 12.6 µM (inconclusive)

SMILES: C#CCOc1c(/C=C\c2nc(O)c([N+](=O)[O-])c(O)n2)cc(Br)cc1OC
- IC50 [10]: 74.5 µM (active)

SMILES: COc1cccc(N2CCN(C3=C(Cl)C(=O)N(c4cccc(C(F)(F)F)c4)C3=O)CC2)c1
- IC50 [11]: > 50 µM (inconclusive)

SMILES: CSc1nc2sc3c(c2c(=O)n1C)CCC(C)C3 (centres undefined)
- EC50 [6]: 5.51 µM (active)
- EC50 [7]: 19.9 µM (active)
- EC50 [8]: 15.3 µM (active)

SMILES: COc1cc(/C=N/NC(=O)c2cccc([N+](=O)[O-])c2)ccc1OCc1ccc(C)cc1
- AC50 [12]: 2.51 µM (inconclusive)
- AC50 [13]: 1.58 µM (inconclusive)

SMILES: CN(C)c1ccc(-c2cc(NCc3cccnc3)ncn2)cc1
- AC50 [12]: 39.8 µM (inconclusive)

SMILES: Cn1nc(-c2ccc(N3CCCCC3)c(NC(=O)c3ccco3)c2)c2ccccc2c1=O
- EC50 [14]: 1.23 µM (active)
- CC50 [1]: 26.3 µM (active)
- EC50 [4]: 7.35 µM (active)
- EC50 [15]: > 60 µM (not active)
- EC50 [16]: 9.07 µM (active)

SMILES: CC(SCc1cn2cc(Cl)ccc2n1)C(=O)O (centres undefined)
- AC50 [12]: 28.2 µM (inconclusive)

SMILES: NS(=O)(=O)c1ccc(CNC(=O)c2csc3c2CCCC3)cc1
- EC50 [17]: > 350 µM (not active)
- EC50 [18]: > 350 µM (not active)

SMILES: COn1c(-c2ccc(Cl)cc2)nc2ncccc21
- EC50 [6]: 0.106 µM (active)
- EC50 [7]: 35.5 µM (active)
- EC50 [8]: 51.9 µM (active)

SMILES: CC1CCC(NC(=O)Cn2cc3c(n2)CCCC3)CC1 (centres undefined)
- EC50 [6]: 0.278 µM (active)
- EC50 [7]: 3.02 µM (active)
- EC50 [8]: 4.09 µM (active)

SMILES: O=C(NNc1ccc([N+](=O)[O-])cn1)Nc1ccc(N=Nc2ccccc2)cc1
- CC50 [19]: 19.4 µM (active)

SMILES: O=C(c1ccccc1)c1ccc(Oc2ccc(C(=O)O)c(C(=O)O)c2)cc1
- IC50 [11]: > 100 µM (not active)

SMILES: CC1(C)CC(=O)C(/C=N/CCN2CCN(C(=S)Nc3cccc(Cl)c3)CC2)=C(O)C1
- EC50 [17]: > 350 µM (not active)
- EC50 [18]: > 350 µM (not active)

SMILES: CC1=NOC(=O)/C1=C/c1ccc2c(c1)OCO2
- IC50 [10]: 11.6 µM (active)

SMILES: COc1ccc(C(=O)/C=C/c2ccccc2F)c(OC(=O)c2ccc([N+](=O)[O-])cc2)c1
- CC50 [19]: 20.9 µM (active)

SMILES: Cc1cccc(N2C(=O)C(Cl)=C(N3CCN(C/C=C/c4ccccc4)CC3)C2=O)c1
- IC50 [11]: > 50 µM (inconclusive)

SMILES: CCCCC(CC)COC(=O)CCCCC(=O)OCC(CC)CCCC (centres undefined)
- AC50 [5]: 20 µM (inconclusive)

SMILES: Cc1c(Cl)c([N+](=O)[O-])nn1CC(=O)NC12CC3CC(CC(C3)C1)C2
- EC50 [17]: > 350 µM (not active)
- EC50 [18]: > 350 µM (not active)

SMILES: O=C1OCC(c2ccccc2)=C1c1ccc(S(=O)(=O)N2CCOCC2)s1
- AC50 [12]: 22.4 µM (inconclusive)
- AC50 [20]: 31.6 µM (inconclusive)
- AC50 [21]: 28.2 µM (inconclusive)

SMILES: O=C(CCl)NCCCCCCCCCNC(=O)CCl
- EC50 [22]: 18.8 µM (active)
- EC50 [23]: > 150 µM (not active)
- EC50 [24]: > 112 µM (not active)
- EC50 [25]: > 112 µM (not active)
- CC50 [1]: 19 µM (active)
- EC50 [26]: > 150 µM (not active)
- EC50 [27]: > 150 µM (not active)

SMILES: Cc1cccc(N2CCN(C(=O)CNC(=O)c3ccccc3)CC2)c1C
- EC50 [6]: 19.2 µM (active)
- EC50 [7]: 11.3 µM (active)
- EC50 [8]: > 60 µM (not active)

SMILES: COC(=O)CCCC1=CC2=CC(=O)C(C)(OC(=O)c3cccs3)C(=O)C2=CN1Cc1ccc2c(c1)OCO2 (centres undefined)
- EC50 [17]: > 350 µM (not active)
- EC50 [18]: > 350 µM (not active)

SMILES: COC(C)(C)CCCC(C)C/C=C/C(C)=C/C(=O)OC(C)C (centres undefined)
- AC50 [5]: 31.6 µM (inconclusive)

SMILES: CCOC(=O)c1c(NC(=O)C(NCCN(C)C)c2ccccc2)sc2c1CCCC2 (centres undefined)
- CC50 [1]: 13.2 µM (active)
- IC50 [28]: > 20 µM (inactive)
- AC50 [29]: 10 µM (active)

SMILES: O=c1cc(-c2ccc(O)cc2)oc2cc(O)ccc12
- AC50 [5]: 7.94 µM (inconclusive)

SMILES: CS(C)(=O)=O [DIMETHYL SULFONE]
- AC50 [5]: 20 µM (inconclusive)

SMILES: CC(C)OC(=O)c1sc2nc3c(cc2c1N)C(=O)CCC3
- EC50 [6]: 41.9 µM (active)
- EC50 [7]: 73.1 µM (active)
- EC50 [8]: 41.6 µM (active)

SMILES: CCCOc1ccc(CSC(CC(=O)O)C(=O)O)cc1 (centres undefined)
- AC50 [12]: 0.224 µM (inconclusive)

SMILES: CCC(NCc1cc(OC)cc(OC)c1)=C1C(=O)NC(=O)NC1=O
- EC50 [17]: > 350 µM (not active)
- EC50 [18]: > 350 µM (not active)

SMILES: COc1cc(/C=C2\SC(=S)N(C(C(=O)O)c3ccccc3)C2=O)cc(OC)c1OC (centres undefined)
- IC50 [10]: > 100 µM (active)

SMILES: O=C(CSc1nc[nH]n1)NCCc1ccc(Cl)cc1Cl
- EC50 [17]: > 350 µM (not active)
- EC50 [18]: 149 µM (active)

SMILES: Cc1cc2cc(C=O)c(Cl)nc2cc1C
- AC50 [12]: 0.0708 µM (inconclusive)
- AC50 [20]: 7.08 µM (inconclusive)
- AC50 [21]: 10 µM (inconclusive)

SMILES: COc1ccc(Oc2ncc3nc(C)c(=O)n(Cc4cccs4)c3n2)cc1
- AC50 [12]: 39.8 µM (inconclusive)
- AC50 [20]: 25.1 µM (inconclusive)
- AC50 [13]: 39.8 µM (inconclusive)

SMILES: O=C(NCCc1c[nH]c2ccccc12)c1cc2ccccc2oc1=O
- EC50 [6]: 0.481 µM (active)
- EC50 [7]: 119 µM (active)
- EC50 [8]: 11 µM (active)
- IC50 [30]: 0.34 µM (active)
